Data from ChEMBL document CHEMBL1157802, “5-Functionalized indazoles as glucocorticoid receptor agonists” (Bioorg Med Chem Lett, 2010).

Tests used:
[1] = Inhibition of phencyclidine receptor at 1 uM
[2] = molecular target: Muscarinic acetylcholine receptor M3 (Homo sapiens) (UniProt P20309); test: Inhibition of muscarinic M3 receptor at 1 uM
[3] = molecular target: Histamine H1 receptor (Homo sapiens) (UniProt P35367); test: Inhibition of histamine H1 receptor at 1 uM
[4] = molecular target: Beta-1 adrenergic receptor (Homo sapiens) (UniProt P08588); test: Inhibition of adrenergic beta-1 receptor at 1 uM
[5] = molecular target: Sodium-dependent noradrenaline transporter (Homo sapiens) (UniProt P23975); test: Inhibition of norepinephrine transporter at 1 uM
Sequence of Sodium-dependent noradrenaline transporter (Homo sapiens) (P23975 whole entry): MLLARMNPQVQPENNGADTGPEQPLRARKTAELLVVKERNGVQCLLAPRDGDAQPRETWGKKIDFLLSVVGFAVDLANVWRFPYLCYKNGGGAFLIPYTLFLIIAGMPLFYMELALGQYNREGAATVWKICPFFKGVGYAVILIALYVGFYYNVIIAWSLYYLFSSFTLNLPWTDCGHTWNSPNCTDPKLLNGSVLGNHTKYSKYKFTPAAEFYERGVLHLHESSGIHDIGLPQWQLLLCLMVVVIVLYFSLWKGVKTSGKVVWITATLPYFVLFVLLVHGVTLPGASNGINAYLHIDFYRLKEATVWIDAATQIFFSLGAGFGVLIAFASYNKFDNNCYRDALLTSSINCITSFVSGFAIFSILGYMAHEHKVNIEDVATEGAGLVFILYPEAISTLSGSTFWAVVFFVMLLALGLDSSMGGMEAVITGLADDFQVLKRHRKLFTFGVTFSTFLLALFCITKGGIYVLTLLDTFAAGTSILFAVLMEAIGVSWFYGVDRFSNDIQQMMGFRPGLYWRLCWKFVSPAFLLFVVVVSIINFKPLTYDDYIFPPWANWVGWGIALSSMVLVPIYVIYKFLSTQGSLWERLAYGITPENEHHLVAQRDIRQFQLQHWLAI

[6] = Selectivity for human glucocorticoid receptor over ERalpha
[7] = molecular target: T1, Alpha-1A adrenergic receptor (Homo sapiens) (UniProt P35348); test: Inhibition of adrenergic alpha1A receptor at 1 uM
T1 sequence (whole entry): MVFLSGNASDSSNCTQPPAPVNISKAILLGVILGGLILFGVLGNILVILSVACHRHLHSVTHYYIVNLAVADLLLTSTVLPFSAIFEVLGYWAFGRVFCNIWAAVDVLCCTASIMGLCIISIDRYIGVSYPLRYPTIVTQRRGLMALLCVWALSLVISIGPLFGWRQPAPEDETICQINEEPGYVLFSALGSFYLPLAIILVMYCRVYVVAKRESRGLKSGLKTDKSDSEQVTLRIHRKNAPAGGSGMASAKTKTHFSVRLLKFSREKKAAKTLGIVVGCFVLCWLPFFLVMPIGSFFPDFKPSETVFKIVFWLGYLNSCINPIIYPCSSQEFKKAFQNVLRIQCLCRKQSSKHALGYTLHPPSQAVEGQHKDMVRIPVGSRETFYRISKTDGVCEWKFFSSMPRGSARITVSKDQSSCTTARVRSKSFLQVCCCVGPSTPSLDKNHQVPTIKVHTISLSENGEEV

[8] = Inhibition of nicotinic bungarotoxin-sensitive acetylcholine receptor at 1 uM
[9] = molecular target: T2, Adenosine receptor A1 (Homo sapiens) (UniProt P30542); test: Inhibition of adenosine A1 receptor at 1 uM
T2 sequence (whole entry): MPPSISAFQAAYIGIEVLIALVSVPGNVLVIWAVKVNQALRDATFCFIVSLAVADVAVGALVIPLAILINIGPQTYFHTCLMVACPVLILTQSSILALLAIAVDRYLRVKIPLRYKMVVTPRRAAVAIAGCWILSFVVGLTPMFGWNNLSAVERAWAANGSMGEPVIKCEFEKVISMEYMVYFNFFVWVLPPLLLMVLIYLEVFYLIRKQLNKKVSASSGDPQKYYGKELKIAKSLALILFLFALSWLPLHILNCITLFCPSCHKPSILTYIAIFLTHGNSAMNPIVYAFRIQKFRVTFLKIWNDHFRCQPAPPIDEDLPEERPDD

Glucocorticoid receptor [10] = molecular target: T3, Glucocorticoid receptor (Homo sapiens, UniProt P04150); test: Agonist activity at glucocorticoid receptor in human fibroblast assessed as inhibition of IL-1-beta-induced IL6 production treated 1 hr before IL1-beta challenge measured after 24 hrs by transrepression assay; assay type: functional
T3 sequence (P04150 whole entry): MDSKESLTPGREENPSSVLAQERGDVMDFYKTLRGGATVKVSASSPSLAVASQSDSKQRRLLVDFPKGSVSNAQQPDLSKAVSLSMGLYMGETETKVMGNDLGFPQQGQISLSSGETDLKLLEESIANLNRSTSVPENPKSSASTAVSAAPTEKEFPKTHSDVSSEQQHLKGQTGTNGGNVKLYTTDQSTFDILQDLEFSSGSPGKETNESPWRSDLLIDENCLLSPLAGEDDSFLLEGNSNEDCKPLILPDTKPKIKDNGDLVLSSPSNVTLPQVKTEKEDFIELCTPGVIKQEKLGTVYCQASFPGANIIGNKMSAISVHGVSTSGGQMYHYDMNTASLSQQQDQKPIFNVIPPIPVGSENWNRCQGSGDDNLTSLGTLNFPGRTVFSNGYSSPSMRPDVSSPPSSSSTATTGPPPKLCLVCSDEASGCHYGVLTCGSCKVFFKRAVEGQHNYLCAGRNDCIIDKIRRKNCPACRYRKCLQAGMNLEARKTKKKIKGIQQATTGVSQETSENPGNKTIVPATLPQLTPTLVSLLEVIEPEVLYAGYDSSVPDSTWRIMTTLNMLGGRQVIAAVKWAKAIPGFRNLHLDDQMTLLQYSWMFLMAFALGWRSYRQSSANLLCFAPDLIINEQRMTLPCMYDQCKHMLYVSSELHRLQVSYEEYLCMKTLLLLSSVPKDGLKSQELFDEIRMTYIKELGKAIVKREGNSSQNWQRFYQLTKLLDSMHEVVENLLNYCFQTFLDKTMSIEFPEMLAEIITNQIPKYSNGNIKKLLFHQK

[11] = Inhibition of sigma 2 receptor at 1 uM
[12] = molecular target: D(1A) dopamine receptor (Homo sapiens) (UniProt P21728); test: Inhibition of dopamine D1 receptor at 1 uM
Sequence of D(1A) dopamine receptor (Homo sapiens) (P21728 whole entry): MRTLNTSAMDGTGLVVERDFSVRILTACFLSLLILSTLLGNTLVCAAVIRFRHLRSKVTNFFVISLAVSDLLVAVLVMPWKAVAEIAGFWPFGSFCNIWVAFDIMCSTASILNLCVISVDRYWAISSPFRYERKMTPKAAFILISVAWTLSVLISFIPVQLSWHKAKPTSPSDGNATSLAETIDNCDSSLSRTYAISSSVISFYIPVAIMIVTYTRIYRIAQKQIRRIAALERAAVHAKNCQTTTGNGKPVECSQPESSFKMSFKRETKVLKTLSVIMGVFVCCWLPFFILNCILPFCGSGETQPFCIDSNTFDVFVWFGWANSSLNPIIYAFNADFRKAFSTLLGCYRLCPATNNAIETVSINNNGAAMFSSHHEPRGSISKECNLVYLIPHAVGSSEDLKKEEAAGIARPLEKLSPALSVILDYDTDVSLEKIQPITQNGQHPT

[13] = Selectivity for human glucocorticoid receptor over androgen receptor
[14] = molecular target: Voltage-gated inwardly rectifying potassium channel KCNH2 (Homo sapiens, UniProt Q12809); test: Inhibition of human ERG by patch clamp method
Sequence of Voltage-gated inwardly rectifying potassium channel KCNH2 (Q12809 whole entry): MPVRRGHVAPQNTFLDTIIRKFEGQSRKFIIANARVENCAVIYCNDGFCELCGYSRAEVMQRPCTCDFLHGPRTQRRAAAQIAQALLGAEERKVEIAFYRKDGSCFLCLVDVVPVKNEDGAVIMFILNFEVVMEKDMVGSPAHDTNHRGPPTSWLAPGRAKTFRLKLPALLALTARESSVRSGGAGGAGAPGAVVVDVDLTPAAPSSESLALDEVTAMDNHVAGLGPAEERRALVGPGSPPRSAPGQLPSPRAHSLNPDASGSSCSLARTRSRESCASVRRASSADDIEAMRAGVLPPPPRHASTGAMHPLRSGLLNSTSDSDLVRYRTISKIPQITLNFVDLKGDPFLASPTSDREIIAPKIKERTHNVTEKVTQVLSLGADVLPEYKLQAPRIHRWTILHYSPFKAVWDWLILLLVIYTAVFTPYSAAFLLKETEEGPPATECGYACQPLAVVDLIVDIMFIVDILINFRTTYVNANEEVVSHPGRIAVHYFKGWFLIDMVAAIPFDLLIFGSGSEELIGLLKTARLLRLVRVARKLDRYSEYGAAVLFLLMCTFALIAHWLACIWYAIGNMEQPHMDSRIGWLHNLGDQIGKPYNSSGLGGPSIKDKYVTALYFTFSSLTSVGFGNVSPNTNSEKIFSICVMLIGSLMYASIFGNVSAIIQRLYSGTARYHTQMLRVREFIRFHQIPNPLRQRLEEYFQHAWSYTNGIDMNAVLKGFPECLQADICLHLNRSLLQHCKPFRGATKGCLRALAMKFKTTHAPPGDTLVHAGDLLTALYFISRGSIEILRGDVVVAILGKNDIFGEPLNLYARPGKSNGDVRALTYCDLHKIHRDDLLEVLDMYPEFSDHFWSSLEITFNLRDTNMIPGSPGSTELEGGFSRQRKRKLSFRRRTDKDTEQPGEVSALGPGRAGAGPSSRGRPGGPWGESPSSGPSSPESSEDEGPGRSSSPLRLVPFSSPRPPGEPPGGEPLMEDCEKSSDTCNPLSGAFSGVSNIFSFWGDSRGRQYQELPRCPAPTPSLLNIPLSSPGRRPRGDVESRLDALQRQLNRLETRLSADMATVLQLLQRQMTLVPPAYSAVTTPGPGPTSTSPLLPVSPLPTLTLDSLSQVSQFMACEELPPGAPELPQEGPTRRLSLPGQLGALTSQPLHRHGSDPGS

hERG (KCNH2) = hERG (KCNH2) (Homo sapiens, UniProt Q12809); test: Inhibition of human ERG at 1 uM
Sequence of hERG (KCNH2) (Q12809 whole entry): as above

[15] = molecular target: Mu-type opioid receptor (Homo sapiens) (UniProt P35372); test: Inhibition of mu opioid receptor at 1 uM
[16] = molecular target: Sigma non-opioid intracellular receptor 1 (Homo sapiens) (UniProt Q99720); test: Inhibition of sigma 1 receptor at 1 uM
Sequence of Sigma non-opioid intracellular receptor 1 (Homo sapiens) (Q99720 whole entry): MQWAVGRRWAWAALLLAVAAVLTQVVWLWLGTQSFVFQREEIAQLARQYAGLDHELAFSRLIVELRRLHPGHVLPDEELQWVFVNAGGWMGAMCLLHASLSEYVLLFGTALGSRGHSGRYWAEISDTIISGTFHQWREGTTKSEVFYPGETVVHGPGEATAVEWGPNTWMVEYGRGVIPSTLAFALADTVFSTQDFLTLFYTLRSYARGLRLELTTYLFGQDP

[17] = molecular target: Beta-2 adrenergic receptor (Homo sapiens) (UniProt P07550); test: Inhibition of adrenergic beta2 receptor at 1 uM
Sequence of Beta-2 adrenergic receptor (Homo sapiens) (P07550 whole entry, looked up): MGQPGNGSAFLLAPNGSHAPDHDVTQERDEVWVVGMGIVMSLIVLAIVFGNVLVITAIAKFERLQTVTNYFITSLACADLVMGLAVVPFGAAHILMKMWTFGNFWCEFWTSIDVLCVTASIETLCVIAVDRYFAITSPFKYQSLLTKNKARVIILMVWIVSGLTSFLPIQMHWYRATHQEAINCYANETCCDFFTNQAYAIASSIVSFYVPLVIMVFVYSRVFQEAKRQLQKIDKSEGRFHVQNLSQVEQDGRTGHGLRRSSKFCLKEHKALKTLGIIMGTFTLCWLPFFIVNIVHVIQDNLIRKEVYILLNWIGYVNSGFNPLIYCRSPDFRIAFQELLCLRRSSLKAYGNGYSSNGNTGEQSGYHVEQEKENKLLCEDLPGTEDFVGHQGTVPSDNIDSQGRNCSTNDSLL

[18] = Selectivity for human glucocorticoid receptor over ERbeta
[19] = Inhibition of NMDA receptor at 1 uM
Glucocorticoid receptor [20] = molecular target: T3, Glucocorticoid receptor
Description: Binding affinity to human glucocorticoid receptor by fluorescence polarization competitive binding assay

[21] = molecular target: D(2) dopamine receptor (Homo sapiens) (UniProt P14416); test: Inhibition of dopamine D2S receptor at 1 uM
Sequence of D(2) dopamine receptor (Homo sapiens) (P14416 whole entry): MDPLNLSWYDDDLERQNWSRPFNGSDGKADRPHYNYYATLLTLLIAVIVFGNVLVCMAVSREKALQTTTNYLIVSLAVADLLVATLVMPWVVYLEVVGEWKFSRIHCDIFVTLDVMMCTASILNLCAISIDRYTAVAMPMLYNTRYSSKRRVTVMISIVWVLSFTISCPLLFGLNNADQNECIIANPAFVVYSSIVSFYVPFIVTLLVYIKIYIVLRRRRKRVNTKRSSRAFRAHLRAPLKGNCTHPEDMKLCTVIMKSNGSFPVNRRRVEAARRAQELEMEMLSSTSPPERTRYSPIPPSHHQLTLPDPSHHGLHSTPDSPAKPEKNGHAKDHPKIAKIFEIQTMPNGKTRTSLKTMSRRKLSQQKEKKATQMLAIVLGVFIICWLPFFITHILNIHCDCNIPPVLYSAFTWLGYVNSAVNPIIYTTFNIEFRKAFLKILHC

[22] = Inhibition of central benzodiazepine receptor at 1 uM
[23] = Inhibition of sodium channel site 2 at 1 uM

Sequence of Muscarinic acetylcholine receptor M3 (Homo sapiens) (P20309 whole entry, looked up): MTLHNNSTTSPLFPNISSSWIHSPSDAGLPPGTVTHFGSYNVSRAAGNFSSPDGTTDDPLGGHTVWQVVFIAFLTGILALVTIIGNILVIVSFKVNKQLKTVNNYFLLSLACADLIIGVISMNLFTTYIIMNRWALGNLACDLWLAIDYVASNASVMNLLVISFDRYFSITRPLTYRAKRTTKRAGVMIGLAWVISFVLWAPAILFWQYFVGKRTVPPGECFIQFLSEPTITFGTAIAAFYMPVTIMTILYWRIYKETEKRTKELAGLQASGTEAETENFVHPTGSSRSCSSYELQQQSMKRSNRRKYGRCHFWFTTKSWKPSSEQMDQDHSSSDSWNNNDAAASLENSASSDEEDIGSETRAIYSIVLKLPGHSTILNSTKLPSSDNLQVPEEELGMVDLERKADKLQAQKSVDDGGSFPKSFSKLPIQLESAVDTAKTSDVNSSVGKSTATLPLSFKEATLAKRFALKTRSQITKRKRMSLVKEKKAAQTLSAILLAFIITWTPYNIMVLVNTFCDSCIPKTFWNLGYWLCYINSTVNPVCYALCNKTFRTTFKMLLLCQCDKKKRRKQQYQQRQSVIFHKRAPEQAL

Row | Structure (SMILES) | inhibition [1] [%] | inhibition [2] [%] | inhibition [3] [%] | inhibition [4] [%] | inhibition [5] [%] | Ratio [6] | inhibition [7] [%] | inhibition [8] [%] | inhibition [9] [%] | EC50 (Glucocorticoid receptor [10]) [nM] | inhibition [11] [%] | inhibition [12] [%] | Ratio [13] | IC50 [14] [nM] | inhibition at 1 µM (hERG (KCNH2)) [%] | inhibition [15] [%] | inhibition [16] [%] | inhibition [17] [%] | Ratio [18] | inhibition [19] [%] | further results
1 | OC(c1ccnc(Cl)c1)(c1ccc2c(cnn2-c2ccc(F)cc2)c1)C(F)(F)F (single isomer, unassigned; (-)) | < 50 | < 50 | < 50 | < 50 | < 50 | > 1000 | < 50 | < 50 | < 50 | 627 | < 50 | < 50 | > 1000 | > 10000 | < 50 | < 50 | < 50 | < 50 | > 1000 | < 50 | IC50 (Glucocorticoid receptor [20]): 14 nM; inhibition [21]: < 50%; inhibition [22]: < 50%; inhibition [23]: < 50%
2 | Cc1cc(C(O)(c2ccc3c(cnn3-c3ccc(F)cc3)c2)C(F)(F)F)ccc1F (single isomer, unassigned; (-)) | < 50 | < 50 | < 50 | < 50 | < 50 | > 1000 | < 50 | < 50 | < 50 | 93 | < 50 | < 50 | > 1000 | > 10000 | < 50 | < 50 | < 50 | < 50 | > 1000 | < 50 | IC50 (Glucocorticoid receptor [20]): 59 nM; inhibition [21]: < 50%; inhibition [22]: < 50%; inhibition [23]: < 50%
